{
  "source": "patent US5952306A",
  "about": "“Integrin receptor antagonists” (Merck & Co., Inc., priority 1997, dated 1999)",
  "origin": "cited, not measured here",
  "key": {"[1]": {"tested_on": "bone resorption"}, "[2]": {"tested_on": "cell attachment-promoting effects of fibronectin and vitronectin"}, "[3]": {"tested_on": "platelet aggregation and thrombus formation in mammalian blood"}},
  "data": [
    {"substance": "Echistatin", "values": [
      {"measurement": "block bone resorption", "setting": "[1]", "result": "can effectively block bone resorption"}
    ]},
    {"substance": "arginine-glycine-aspartic acid [Arg-Gly-Asp]", "values": [
      {"measurement": "activity (duplicate or inhibit cell attachment-promoting effects)", "setting": "[2]", "result": "low activity"}
    ]},
    {"substance": "N-amidino-piperidine-3-carboxylglycyl-L-aspartyl-L-valine", "values": [
      {"measurement": "inhibit platelet aggregation and thrombus formation in mammalian blood", "setting": "[3]", "result": "inhibit platelet aggregation and thrombus formation"}
    ]}
  ]
}
